Patent US20220281848A1, “PYRAZOLE-SUBSTITUTED PYRROLIDINONES AS HERBICIDES” (FMC Corporation, priority 2019, published 2022)

Columns and labels:
Format in all cases: in vivo
[1] = test system: plants; assay: Test D post-emergence, other plants of Tables D2 and D4; conditions: for ALOMY damage rating (100=total damage to plant; 0=no damage to plant) / AVEFA damage rating (100=total damage to plant; 0=no damage to plant) / BEAVA damage rating (100=total damage to plant; 0=no damage to plant) / BROTE damage rating (100=total damage to plant; 0=no damage to plant) / BRSNN damage rating (100=total damage to plant; 0=no damage to plant) / CHEAL damage rating (100=total damage to plant; 0=no damage to plant) / GALAP damage rating (100=total damage to plant; 0=no damage to plant) / HORVW damage rating (100=total damage to plant; 0=no damage to plant) / KCHSC damage rating (100=total damage to plant; 0=no damage to plant) / LOLPE damage rating (100=total damage to plant; 0=no damage to plant) / POAAN damage rating (100=total damage to plant; 0=no damage to plant) / POLCO damage rating (100=total damage to plant; 0=no damage to plant) / STEME damage rating (100=total damage to plant; 0=no damage to plant) / VERPE damage rating (100=total damage to plant; 0=no damage to plant): "Cereals" Postemergent, evaluated after 15 d
Outline: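 Damage was rated visually from 0 (none) to 100 (total), at 20 DAA for pre-emergence and 15 d for post-emergence. Plants grew from safener-treated seed in a glasshouse at 24/18° C. or 20/16° C. day/night, 65% humidity, watered twice daily.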

[2] = test system: redroot pigweed (Amaranthus retroflexus, AMARE); assay: Test A pre-emergence, redroot pigweed; conditions: after 13 d
Outline: (§1)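 Seeds sown in pots of standard soil and sprayed one day later, pre-emergence, at 15.625, 62.5 or 250 g/ha in acetone/water (50:50) with 0.5% Tween 20. Grown in glasshouse at 24/16 °C, 14 h light, 65% humidity. Damage scored after 13 d (0 none, 100 total).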

[3] = test system: wheat; assay: Test D pre-emergence, wheat seed treated with a herbicide safener; conditions: 100=total damage, 0=no damage
Outline: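 Herbicidal injury on safener-protected cereals: application timings were one day after sowing for pre-emergence and about 12 days of cultivation for post-emergence. Assessment came 20 DAA or 15 d later respectively, on a scale where 100 meant total damage.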

[4] = test system: velvetleaf (Abutilon theophrasti, ABUTH); assay: Test A pre-emergence, velvetleaf; conditions: after 13 d
Outline: as §1

[5] = post-emergence, rate 130, evaluated after 15 d
[6] = post-emergence, rate 250, evaluated after 15 d
[7] = post-emergence, rate 500, evaluated after 15 d

CN1C[C@H](c2nn(C)c3c(F)cccc23)[C@@H](C(=O)Nc2cccc(F)c2F)C1=O [Compound 2]
ALOMY damage rating (100=total damage to plant; 0=no damage to plant) ([1]; Rates 130): 0 | ALOMY damage rating (100=total damage to plant; 0=no damage to plant) ([1]; Rates 250): 10 | ALOMY damage rating (100=total damage to plant; 0=no damage to plant) ([1]; Rates 500): 30 | AVEFA damage rating (100=total damage to plant; 0=no damage to plant) ([1]; Rates 130): 0 | AVEFA damage rating (100=total damage to plant; 0=no damage to plant) ([1]; Rates 250): 10 | AVEFA damage rating (100=total damage to plant; 0=no damage to plant) ([1]; Rates 500): 40 | BEAVA damage rating (100=total damage to plant; 0=no damage to plant) ([1]; Rates 130): 10 | BEAVA damage rating (100=total damage to plant; 0=no damage to plant) ([1]; Rates 250): 20 | BEAVA damage rating (100=total damage to plant; 0=no damage to plant) ([1]; Rates 500): 10 | BROTE damage rating (100=total damage to plant; 0=no damage to plant) ([1]; Rates 130): 0 | BROTE damage rating (100=total damage to plant; 0=no damage to plant) ([1]; Rates 250): 0 | BROTE damage rating (100=total damage to plant; 0=no damage to plant) ([1]; Rates 500): 30 | BRSNN damage rating (100=total damage to plant; 0=no damage to plant) ([1]; Rates 130): 40 | BRSNN damage rating (100=total damage to plant; 0=no damage to plant) ([1]; Rates 250): 50 | BRSNN damage rating (100=total damage to plant; 0=no damage to plant) ([1]; Rates 500): 40 | CHEAL damage rating (100=total damage to plant; 0=no damage to plant) ([1]; Rates 250): 0 | CHEAL damage rating (100=total damage to plant; 0=no damage to plant) ([1]; Rates 500): 20 | GALAP damage rating (100=total damage to plant; 0=no damage to plant) ([1]; Rates 130): 0 | GALAP damage rating (100=total damage to plant; 0=no damage to plant) ([1]; Rates 250): 10 | GALAP damage rating (100=total damage to plant; 0=no damage to plant) ([1]; Rates 500): 0 | HORVW damage rating (100=total damage to plant; 0=no damage to plant) ([1]; Rates 130): 0 | HORVW damage rating (100=total damage to plant; 0=no damage to plant) ([1]; Rates 250): 20 | HORVW damage rating (100=total damage to plant; 0=no damage to plant) ([1]; Rates 500): 30 | KCHSC damage rating (100=total damage to plant; 0=no damage to plant) ([1]; Rates 130): 0 | KCHSC damage rating (100=total damage to plant; 0=no damage to plant) ([1]; Rates 250): 0 | KCHSC damage rating (100=total damage to plant; 0=no damage to plant) ([1]; Rates 500): 0 | LOLPE damage rating (100=total damage to plant; 0=no damage to plant) ([1]; Rates 130): 0 | LOLPE damage rating (100=total damage to plant; 0=no damage to plant) ([1]; Rates 250): 0 | LOLPE damage rating (100=total damage to plant; 0=no damage to plant) ([1]; Rates 500): 0 | POAAN damage rating (100=total damage to plant; 0=no damage to plant) ([1]; Rates 130): 20 | POAAN damage rating (100=total damage to plant; 0=no damage to plant) ([1]; Rates 250): 70 | POAAN damage rating (100=total damage to plant; 0=no damage to plant) ([1]; Rates 500): 80 | POLCO damage rating (100=total damage to plant; 0=no damage to plant) ([1]; Rates 130): 0 | POLCO damage rating (100=total damage to plant; 0=no damage to plant) ([1]; Rates 250): 20 | POLCO damage rating (100=total damage to plant; 0=no damage to plant) ([1]; Rates 500): 40 | STEME damage rating (100=total damage to plant; 0=no damage to plant) ([1]; Rates 130): 0 | STEME damage rating (100=total damage to plant; 0=no damage to plant) ([1]; Rates 250): 0 | STEME damage rating (100=total damage to plant; 0=no damage to plant) ([1]; Rates 500): 0 | VERPE damage rating (100=total damage to plant; 0=no damage to plant) ([1]; Rates 130): 0 | VERPE damage rating (100=total damage to plant; 0=no damage to plant) ([1]; Rates 250): 10 | VERPE damage rating (100=total damage to plant; 0=no damage to plant) ([1]; Rates 500): 0 | damage to plant (100=total damage to plant; 0=no damage to plant), ABUTH ([1]; post-emergence, ABUTH, rate 500, evaluated after 15 d): 0 | damage to plant (100=total damage to plant; 0=no damage to plant), AMARE [1, 5]: 0 | damage to plant (100=total damage to plant; 0=no damage to plant), AMARE [1, 6]: 10 | damage to plant (100=total damage to plant; 0=no damage to plant), AMARE [1, 7]: 30 | damage to plant (100=total damage to plant; 0=no damage to plant), BIDPI [1, 5]: 0 | damage to plant (100=total damage to plant; 0=no damage to plant), BIDPI [1, 6]: 0 | damage to plant (100=total damage to plant; 0=no damage to plant), BIDPI [1, 7]: 10 | damage to plant (100=total damage to plant; 0=no damage to plant), BRAPL [1, 5]: 70 | damage to plant (100=total damage to plant; 0=no damage to plant), BRAPL [1, 6]: 80 | damage to plant (100=total damage to plant; 0=no damage to plant), BRAPL [1, 7]: 80 | damage to plant (100=total damage to plant; 0=no damage to plant), CYPES [1, 5]: 0 | damage to plant (100=total damage to plant; 0=no damage to plant), CYPES [1, 6]: 0 | damage to plant (100=total damage to plant; 0=no damage to plant), CYPES [1, 7]: 0 | damage to plant (100=total damage to plant; 0=no damage to plant), DIGSA [1, 5]: 60 | damage to plant (100=total damage to plant; 0=no damage to plant), DIGSA [1, 6]: 70 | damage to plant (100=total damage to plant; 0=no damage to plant), DIGSA [1, 7]: 70 | damage to plant (100=total damage to plant; 0=no damage to plant), ECHCG [1, 6]: 80 | damage to plant (100=total damage to plant; 0=no damage to plant), ECHCG [1, 7]: 80 | damage to plant (100=total damage to plant; 0=no damage to plant), ELEIN [1, 5]: 0 | damage to plant (100=total damage to plant; 0=no damage to plant), ELEIN [1, 6]: 0 | damage to plant (100=total damage to plant; 0=no damage to plant), ELEIN [1, 7]: 0 | damage to plant (100=total damage to plant; 0=no damage to plant), EPHHL [1, 5]: 0 | damage to plant (100=total damage to plant; 0=no damage to plant), EPHHL [1, 6]: 10 | damage to plant (100=total damage to plant; 0=no damage to plant), EPHHL [1, 7]: 40 | damage to plant (100=total damage to plant; 0=no damage to plant), GLXMA [1, 5]: 0 | damage to plant (100=total damage to plant; 0=no damage to plant), GLXMA [1, 6]: 0 | damage to plant (100=total damage to plant; 0=no damage to plant), GLXMA [1, 7]: 10 | damage to plant (100=total damage to plant; 0=no damage to plant), IPOHE [1, 5]: 10 | damage to plant (100=total damage to plant; 0=no damage to plant), IPOHE [1, 6]: 20 | damage to plant (100=total damage to plant; 0=no damage to plant), IPOHE [1, 7]: 30 | damage to plant (100=total damage to plant; 0=no damage to plant), ORYSA [1, 5]: 0 | damage to plant (100=total damage to plant; 0=no damage to plant), ORYSA [1, 6]: 0 | damage to plant (100=total damage to plant; 0=no damage to plant), ORYSA [1, 7]: 10 | damage to plant (100=total damage to plant; 0=no damage to plant), PANMI [1, 5]: 0 | damage to plant (100=total damage to plant; 0=no damage to plant), PANMI [1, 6]: 0 | damage to plant (100=total damage to plant; 0=no damage to plant), PANMI [1, 7]: 0 | damage to plant (100=total damage to plant; 0=no damage to plant), SETFA [1, 5]: 70 | damage to plant (100=total damage to plant; 0=no damage to plant), SETFA [1, 6]: 70 | damage to plant (100=total damage to plant; 0=no damage to plant), SETFA [1, 7]: 80 | damage to plant (100=total damage to plant; 0=no damage to plant), SIDSP [1, 5]: 0 | damage to plant (100=total damage to plant; 0=no damage to plant), SIDSP [1, 6]: 0 | damage to plant (100=total damage to plant; 0=no damage to plant), SIDSP [1, 7]: 0 | damage to plant (100=total damage to plant; 0=no damage to plant), SORVU [1, 5]: 0 | damage to plant (100=total damage to plant; 0=no damage to plant), SORVU [1, 6]: 0 | damage to plant (100=total damage to plant; 0=no damage to plant), SORVU [1, 7]: 0 | damage to plant (100=total damage; 0=no damage) AMARE ([2]; Pre-Emergence at 15.625 g/ha): 10 | damage to plant (100=total damage; 0=no damage) AMARE ([2]; Pre-Emergence at 62.5 g/ha): 0 | damage to plant (100=total damage; 0=no damage) AMARE ([2]; Pre-Emergence at 250 g/ha): 0 | damage to plant, TRZAW ([3]; rate 15, 20 DAA): 0 | damage to plant, TRZAW ([3]; rate 30, 20 DAA): 0 | damage to plant, TRZAW ([3]; rate 60, 20 DAA): 0 | damage to plant, TRZAW ([3]; rate 130, 20 DAA): 10 | damage to plant, TRZAW ([3]; rate 250, 20 DAA): 20 | damage to plant, TRZAW ([3]; rate 500, 20 DAA): 80 | damage to plant (100=total damage; 0=no damage) ABUTH ([4]; Pre-Emergence at 15.625 g/ha): 0 | damage to plant (100=total damage; 0=no damage) ABUTH ([4]; Pre-Emergence at 62.5 g/ha): 0 | damage to plant (100=total damage; 0=no damage) ABUTH ([4]; Pre-Emergence at 250 g/ha): 0
